Results from the NIST ThermoML archive (doi:10.1021/je5001507).
Numbers after ± are expanded uncertainties.

Tests used:
[1] = refractive index (Na D-line) (dimensionless); details: 101.33 kPa, Liquid, Standard Abbe refractometry
[2] = for mass density / viscosity / electrical conductivity: 101.33 kPa, Liquid; for mass density: Vibrating tube method; for surface tension liquid-gas: plate method; for electrical conductivity: Alternating current cell with electrodes

CC(C)C[NH2+]CCCCS(=O)(=O)O.O=S(=O)([O-])O [N-isobutyl-4-sulfobutan-1-aminium hydrogen sulfate]
Details | electrical conductivity, [2] [S/m] | mass density, [2] [kg/m3] | refractive index, [1] | surface tension liquid-gas, [2] [mN/m] | viscosity, [2] [mPa·s]
293.15 K | – | 1359.08 ± 4.6 | 1.48143 ± 0.0012 | – | –
298.15 K | 0.593 ± 0.007 | – | 1.4803 ± 0.0012 | 47.15 ± 0.71 | 14433 ± 3300
303.15 K | 0.757 ± 0.009 | 1353.21 ± 4.6 | 1.47918 ± 0.0012 | 46.79 ± 0.7 | 9450 ± 2000
308.15 K | 1.04 ± 0.012 | – | 1.47804 ± 0.0012 | 46.48 ± 0.7 | 6033 ± 1200
313.15 K | 1.32 ± 0.015 | 1347.39 ± 4.6 | 1.47689 ± 0.0012 | 46.12 ± 0.69 | 4267 ± 770
318.15 K | 1.65 ± 0.019 | – | 1.47576 ± 0.0012 | 45.74 ± 0.69 | 2967 ± 490
323.15 K | 2.16 ± 0.023 | 1341.63 ± 4.5 | 1.47461 ± 0.0012 | 45.3 ± 0.68 | 2117 ± 320
328.15 K | 2.53 ± 0.027 | – | 1.4734 ± 0.0012 | 44.93 ± 0.67 | 1550 ± 220
333.15 K | 3.01 ± 0.032 | 1335.95 ± 4.5 | 1.47212 ± 0.0012 | – | 1033 ± 130
338.15 K | 3.67 ± 0.039 | – | – | – | 766.7 ± 85
343.15 K | 4.29 ± 0.045 | 1330.29 ± 4.4 | – | – | 633.3 ± 66
348.15 K | 4.96 ± 0.051 | – | – | – | 483.3 ± 45
353.15 K | 5.61 ± 0.058 | 1324.66 ± 4.4 | – | – | 383.3 ± 32
358.15 K | – | – | – | – | 316.7 ± 24
363.15 K | – | 1319.09 ± 4.4 | – | – | 266.7 ± 19
368.15 K | – | – | – | – | 200 ± 12
373.15 K | – | – | – | – | 166.7 ± 8.5
